The source made the active and inactive calls. No cut-off for these calls is given here.
What was measured:
[1] = target: Ephrin type-A receptor 4 (Homo sapiens) (UniProt P54764); assay: Inhibition of EPHA4 (unknown origin) at 10 uM by Ambit Kinomescan binding assay relative to control
[2] = target: T1, Serine/threonine-protein kinase Chk1 (Homo sapiens) (UniProt O14757); assay: Inhibition of CHEK1 (unknown origin) at 10 uM by Ambit Kinomescan binding assay
T1 sequence (whole entry): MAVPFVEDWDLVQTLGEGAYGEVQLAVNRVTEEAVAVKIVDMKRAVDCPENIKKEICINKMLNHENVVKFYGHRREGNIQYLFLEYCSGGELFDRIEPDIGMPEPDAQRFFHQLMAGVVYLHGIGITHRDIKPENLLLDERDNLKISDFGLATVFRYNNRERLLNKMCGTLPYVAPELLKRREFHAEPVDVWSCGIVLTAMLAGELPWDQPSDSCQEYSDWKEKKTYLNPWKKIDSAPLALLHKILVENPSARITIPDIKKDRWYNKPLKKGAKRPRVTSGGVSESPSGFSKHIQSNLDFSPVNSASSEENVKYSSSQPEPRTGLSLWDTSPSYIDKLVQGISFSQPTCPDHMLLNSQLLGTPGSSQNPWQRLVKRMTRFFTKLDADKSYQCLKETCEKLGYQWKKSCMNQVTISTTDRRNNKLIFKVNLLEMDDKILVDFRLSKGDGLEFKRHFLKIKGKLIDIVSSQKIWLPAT

[3] = target: T2, Eukaryotic translation initiation factor 2-alpha kinase 3 (Homo sapiens) (UniProt Q9NZJ5); assay: Inhibition of PEK K2 labeling site in human Huh-7 cells at 10 uM by KiNativ Profiling analysis relative to control; format: cell-based
T2 sequence (whole entry): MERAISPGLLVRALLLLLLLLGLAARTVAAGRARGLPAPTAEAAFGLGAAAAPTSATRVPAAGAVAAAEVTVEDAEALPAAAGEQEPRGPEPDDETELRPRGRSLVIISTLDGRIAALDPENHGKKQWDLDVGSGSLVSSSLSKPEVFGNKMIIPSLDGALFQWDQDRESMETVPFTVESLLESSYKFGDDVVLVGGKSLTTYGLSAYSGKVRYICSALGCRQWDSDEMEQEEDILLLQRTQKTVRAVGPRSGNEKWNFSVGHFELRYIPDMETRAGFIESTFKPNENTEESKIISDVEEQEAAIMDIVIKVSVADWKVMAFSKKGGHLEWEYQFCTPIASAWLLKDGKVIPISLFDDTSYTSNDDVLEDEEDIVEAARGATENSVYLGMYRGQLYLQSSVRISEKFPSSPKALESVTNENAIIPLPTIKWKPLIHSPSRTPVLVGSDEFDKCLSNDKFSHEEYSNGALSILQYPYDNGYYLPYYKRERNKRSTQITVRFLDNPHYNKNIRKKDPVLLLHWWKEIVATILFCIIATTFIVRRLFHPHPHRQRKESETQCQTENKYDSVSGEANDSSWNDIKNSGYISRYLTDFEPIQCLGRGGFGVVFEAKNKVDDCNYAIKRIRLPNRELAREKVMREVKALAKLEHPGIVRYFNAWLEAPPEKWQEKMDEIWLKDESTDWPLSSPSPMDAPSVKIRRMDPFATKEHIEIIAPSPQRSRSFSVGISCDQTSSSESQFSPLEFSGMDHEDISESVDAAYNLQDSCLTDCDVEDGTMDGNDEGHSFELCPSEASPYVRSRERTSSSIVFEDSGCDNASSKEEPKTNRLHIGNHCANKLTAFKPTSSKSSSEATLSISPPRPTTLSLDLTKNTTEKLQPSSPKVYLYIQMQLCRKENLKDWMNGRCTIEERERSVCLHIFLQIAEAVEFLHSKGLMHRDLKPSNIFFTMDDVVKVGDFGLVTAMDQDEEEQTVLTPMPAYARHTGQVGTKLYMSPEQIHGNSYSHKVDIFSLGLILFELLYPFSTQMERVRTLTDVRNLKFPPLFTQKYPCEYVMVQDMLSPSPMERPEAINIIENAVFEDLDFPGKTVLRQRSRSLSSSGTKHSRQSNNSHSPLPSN

Ephrin type-A receptor 4 (Homo sapiens), sequence (P54764 whole entry): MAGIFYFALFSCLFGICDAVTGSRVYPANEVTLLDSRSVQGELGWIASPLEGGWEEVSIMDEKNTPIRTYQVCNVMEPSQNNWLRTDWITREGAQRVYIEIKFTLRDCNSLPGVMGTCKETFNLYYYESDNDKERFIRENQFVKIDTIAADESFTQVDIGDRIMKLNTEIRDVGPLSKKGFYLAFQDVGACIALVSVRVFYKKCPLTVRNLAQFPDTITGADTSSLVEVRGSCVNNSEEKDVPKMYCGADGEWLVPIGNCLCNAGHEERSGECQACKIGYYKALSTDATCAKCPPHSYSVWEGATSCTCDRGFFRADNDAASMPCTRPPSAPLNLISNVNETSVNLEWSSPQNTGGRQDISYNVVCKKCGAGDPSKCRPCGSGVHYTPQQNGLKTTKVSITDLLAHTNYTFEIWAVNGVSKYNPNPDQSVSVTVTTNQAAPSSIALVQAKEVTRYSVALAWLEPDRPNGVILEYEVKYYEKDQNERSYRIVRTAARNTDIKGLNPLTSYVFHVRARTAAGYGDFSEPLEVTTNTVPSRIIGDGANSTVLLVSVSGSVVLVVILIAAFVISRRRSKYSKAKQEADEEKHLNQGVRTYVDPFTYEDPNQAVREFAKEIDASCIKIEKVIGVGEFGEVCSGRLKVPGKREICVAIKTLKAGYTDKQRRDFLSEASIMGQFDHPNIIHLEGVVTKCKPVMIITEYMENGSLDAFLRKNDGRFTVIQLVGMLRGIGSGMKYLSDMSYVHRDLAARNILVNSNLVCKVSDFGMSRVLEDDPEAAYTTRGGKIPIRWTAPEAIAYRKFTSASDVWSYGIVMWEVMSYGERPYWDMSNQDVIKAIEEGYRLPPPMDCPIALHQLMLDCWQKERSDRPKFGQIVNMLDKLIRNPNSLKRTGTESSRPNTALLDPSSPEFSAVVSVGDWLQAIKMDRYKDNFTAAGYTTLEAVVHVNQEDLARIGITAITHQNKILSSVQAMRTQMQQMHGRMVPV

## CCN1CCN(Cc2ccc(NC(=O)c3ccc(C)c(Oc4ccnc5[nH]ccc45)c3)cc2C(F)(F)F)CC1
[1]
  inhibition: 5.8%
[2]
  inhibition: inactive
[3]
  inhibition: inactive
